Data published in patent US20050228016A1, “TETRAHYDROQUINOLINES FOR MODULATING THE EXPRESSION OF EXOGENOUS GENES VIA AN ECDYSONE RECEPTOR COMPLEX” (priority 2002, published 2005).

What was measured:
[1] = target: T1, Gal4DBD/AaEcR (DEF) (Aedes aegypti, UniProt P49880); assay: cell-based; format: cell-based; conditions: for fold induction at 33 µM: NIH3T3, read-out: Fold Induction Average, AA_3T3V1 Assay 33 μM; for Fold Induction Average, AA_3T3V1 Assay 33 μM: 3T3 cells, 48 h, average of two wells
T1 construct: The wildtype D, E, and F domains from mosquito Aedes aegypti EcR; expressed in transfected cells; host or cells: 3T3 cells
Outline: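 Mouse 3T3 cells transiently co-transfected with Gal4DBD/AaEcR (DEF) and pFRLuc (5× GAL4 response element, firefly luciferase reporter). Ligand added in serum medium 4 h after transfection; single-dose testing at 33 μM.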

[2] = target: T2, DmEcR + LmUSP (Drosophila melanogaster, UniProt P34021); assay: cell-based; conditions: for fold induction at 10 µM: NIH3T3, read-out: Fold Induction (10 μM); for fold induction at 100 µM: NIH3T3, read-out: Fold Induction (100 μM)
T2 sequence (P34021 342-878): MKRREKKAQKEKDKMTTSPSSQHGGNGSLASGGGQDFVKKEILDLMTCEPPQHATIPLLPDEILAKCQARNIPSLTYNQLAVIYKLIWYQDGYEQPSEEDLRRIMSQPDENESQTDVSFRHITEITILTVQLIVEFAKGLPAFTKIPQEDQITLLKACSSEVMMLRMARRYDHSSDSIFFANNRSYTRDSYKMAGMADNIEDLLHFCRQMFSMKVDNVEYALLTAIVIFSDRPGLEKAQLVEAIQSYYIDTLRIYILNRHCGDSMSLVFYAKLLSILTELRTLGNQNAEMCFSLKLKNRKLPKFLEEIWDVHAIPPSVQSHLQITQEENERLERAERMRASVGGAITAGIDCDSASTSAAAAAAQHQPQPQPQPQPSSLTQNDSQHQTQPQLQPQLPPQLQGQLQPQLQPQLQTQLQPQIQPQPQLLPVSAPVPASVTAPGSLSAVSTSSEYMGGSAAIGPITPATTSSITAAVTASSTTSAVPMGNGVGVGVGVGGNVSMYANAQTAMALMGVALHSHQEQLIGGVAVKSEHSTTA
Protocol: (§4) To determine if any of the compounds shown in Table 1 and Table 2 can act as inducers of reporter gene activity in a transactivation assay, these compounds were tested in NIH3T3 cells transfected with pFRLUC reporter and gene expression cassettes, 1.1 to 1.8 described in Example 1. […] At 48 hr after adding ligand, the cells were harvested and reporter activity was assayed using Dual Luciferase assay kit (Promega carporation). Total relative light units (RLU) are shown. Standard methods for culture and maintenance of the cells were followed.
(§5) Transfections: DNAs corresponding to the various switch constructs outlined in Example I, specifically switches 1.1 through 1.8, were transfected into mouse NIH3T3 cells (ATCC) as follows. Cells were harvested when they reached 50% confluency and plated in 6-, 12- or 24-well plates at 125,000, 50,000, or 25,000 cells, respectively, in 2.5, 1.0, or 0.5 ml of growth medium containing 10% fetal bovine serum (FBS), respectively. The next day, the cells were rinsed with growth medium and transfected for four hours. […] For 12-well plates, 4 μl of Superfect™ was mixed with 100 μl of growth medium. 1.0 μg of reporter construct and 0.25 μg of each receptor construct of the receptor pair to be analyzed were added to the transfection mix. A second reporter construct was added [pTKRL (Promega), 0.1 μg/transfection mix] that comprises a Renilla luciferase gene operably linked and placed under the control of a thymidine kinase (TK) constitutive promoter and was used for normalization. The contents of the transfection mix were mixed in a vortex mixer and let stand at room temperature for 30 min. At the end of incubation, the transfection mix was added to the cells maintained in 400 μl growth medium. The cells were maintained at 37° C. and 5% CO2 for four hours. At the end of incubation, 500 μl of growth medium containing 20% FBS and either dimethylsulfoxide (DMSO; control) or a DMSO solution of 0.1, 1, and 10 μM ligand was added and the cells were maintained at 37° C. and 5% CO2 for 48 hours. The cells were harvested and reporter activity was assayed. The same procedure was followed for 6 and 24 well plates as well except all the reagents were doubled for 6 well plates and reduced to half for 24-well plates.
(§6) Ligands: All ligands were dissolved in DMSO and the final concentration of DMSO was maintained at 0.1% in both controls and treatments.
(§7) Reporter Assays: Cells were harvested 48 hours after adding ligands. 125, 250, or 500 μl of passive lysis buffer (part of Dual-luciferase™ reporter assay system from Promega Corporation) were added to each well of 24- or 12- or 6-well plates respectively. The plates were placed on a rotary shaker for 15 minutes. Twenty μl of lysate were assayed. Luciferase activity was measured using Dual-luciferase™ reporter assay system from Promega Corporation following the manufacturer's instructions.

[3] = target: T3, Bombyx mori EcR (VP16-BmEcR, CVBE) (Bombyx mori, UniProt P49881); assay: Z3 assay (HEK-293 clone Z3 with CVBE and 6x EcRE LacZ, β-galactosidase reporter); format: cell-based; conditions: average of two wells; for fold induction at 33 µM: HEK293, 48 h, read-out: Fold Induction Average, Z3V1 Assay 33 μM; for Fold Induction Average, Z3V1 Assay 33 μM: 48 h
T3 construct: expressed in transfected cells
T3 sequence (P49881 86-606): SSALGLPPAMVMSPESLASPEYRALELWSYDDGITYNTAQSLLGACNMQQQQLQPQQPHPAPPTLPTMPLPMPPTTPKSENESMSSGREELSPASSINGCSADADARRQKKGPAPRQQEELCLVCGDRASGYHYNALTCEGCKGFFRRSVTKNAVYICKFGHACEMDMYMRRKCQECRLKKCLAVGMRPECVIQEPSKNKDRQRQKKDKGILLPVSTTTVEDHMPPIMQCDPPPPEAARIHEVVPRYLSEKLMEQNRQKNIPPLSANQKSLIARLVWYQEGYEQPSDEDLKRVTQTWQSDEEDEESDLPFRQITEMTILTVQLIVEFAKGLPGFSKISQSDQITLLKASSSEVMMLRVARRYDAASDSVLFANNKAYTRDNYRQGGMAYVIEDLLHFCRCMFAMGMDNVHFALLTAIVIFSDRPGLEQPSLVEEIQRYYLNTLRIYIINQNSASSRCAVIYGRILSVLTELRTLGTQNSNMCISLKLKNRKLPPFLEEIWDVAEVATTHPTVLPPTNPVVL

[4] = tested on: CfEcR + LmUSP; conditions: CfEcR + LmUSP in 3T3 cells, reporter assayed 48 h after ligand
Protocol: 1.9—Gal4CfEcR-DEF/VP16LmRXR-EF: This construct was prepared in the same way as switch 1.1 except LmRXR-EF (SEQ ID NO: 18) was used in place of HsRXRβ-LmRXREF chimera.
as §4, §5, §6, §7

[5] = target: T4, GAL4AaEcR-DEF/VP16HsRXRβ-EF (Aedes aegypti, UniProt P49880); assay: Transactivation reporter assay, AaEcR based switch (1.4) in NIH3T3 cells; format: cell-based; conditions: mammalian cells; FIGS. 2-5
T4 construct: expressed in transfected cells; host or cells: mouse NIH3T3 cells
T4 sequence (P49880 405-776 limits assumed): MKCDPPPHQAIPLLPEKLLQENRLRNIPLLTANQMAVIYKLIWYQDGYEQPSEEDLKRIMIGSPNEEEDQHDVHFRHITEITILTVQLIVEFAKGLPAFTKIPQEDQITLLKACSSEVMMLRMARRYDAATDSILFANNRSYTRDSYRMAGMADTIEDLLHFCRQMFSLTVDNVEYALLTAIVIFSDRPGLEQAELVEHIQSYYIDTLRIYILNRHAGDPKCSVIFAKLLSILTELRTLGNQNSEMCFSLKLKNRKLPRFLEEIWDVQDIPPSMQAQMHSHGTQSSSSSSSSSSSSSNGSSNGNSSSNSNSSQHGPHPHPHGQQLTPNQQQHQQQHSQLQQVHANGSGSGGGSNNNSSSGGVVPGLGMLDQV
T4 sequence (P28702 299-533 partner limits assumed): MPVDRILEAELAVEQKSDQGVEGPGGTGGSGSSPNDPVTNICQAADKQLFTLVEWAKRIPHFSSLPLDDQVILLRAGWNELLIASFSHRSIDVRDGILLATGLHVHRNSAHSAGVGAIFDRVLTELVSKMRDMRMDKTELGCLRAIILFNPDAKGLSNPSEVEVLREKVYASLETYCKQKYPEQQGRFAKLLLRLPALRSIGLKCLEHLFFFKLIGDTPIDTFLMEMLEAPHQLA
Protocol: Total relative light units (RLU) are shown.
Twenty μl of lysate were assayed.

[6] = tested on: GAL4 DBD-CfEcR(DEF)/VP16AD-MmRXRE; conditions: CHO 13B3 clone, 48 h, average of two wells
Description: GAL4 DBD-CfEcR(DEF)/VP16AD-MmRXRE: The wild-type D, E, and F domains from spruce budworm Choristoneura fumiferana EcR (“CfEcR-DEF”; SEQ ID NO: 1) were fused to a GAL4 DNA binding domain (“Gal4DBD1-147”; nucleotides 31 to 471 of SEQ ID NO: 2) and placed under the control of the SV40e promoter of pM vector (PT3119-5, Clontech, Palo Alto, Calif.). The D and E domains from Mus Musculus RXR (“MmRXR-DE”; SEQ ID NO: 22) were fused to the transactivation domain from VP16 (“VP16AD”; SEQ ID NO: 5) and placed under the control of the SV40e promoter of the pVP16 vector (PT3127-5, Clontech, Palo Alto, Calif.).
CHO cells were transiently transfected with transcription cassettes for GAL4 DBD-CfEcR(DEF) and for VP16AD-MmRXRE controlled by SV40e promoters. Stably transfected cells were selected using Hygromycin. Individually isolated CHO cell clones were transiently transfected with a GAL4 RE-luciferase reporter (pFR-Luc, Stratagene, La Jolla, Calif.). The 13B3 clone was selected using Zeocin.
(§1) Cells were trypsinized and diluted to a concentration of 2.5×10^4 cells mL. 100 μL of cell suspension was placed in each well of a 96 well plate and incubated at 37° C. under 5% CO2 for 24 h. Ligand stock solutions were prepared in DMSO and diluted 300 fold for all treatments.
(§2) Luciferase reporter gene expression was measured 48 h after cell treatment using Bright-Glo™ Luciferase Assay System from Promega (E2650). Luminescence was detected at room temperature using a Dynex MLX microtiter plate luminometer.
(§3) Each assay was conducted in two separate wells, and the two values were averaged. Fold inductions were calculated by dividing relative light units (“RLU”) in ligand treated cells with RLU in DMSO treated cells.

[7] = tested on: GAL4 DBD (1-147)-CfEcR(DEF)/VP16AD-βRXREF-LmUSPEF; conditions: CHO 27-63 clone, 48 h, average of two wells
Description: GAL4 DBD (1-147)-CfEcR(DEF)/VP16AD-βRXREF-LmUSPEF: The wild-type D, E, and F domains from spruce budworm Choristoneura fumiferana EcR (“CfEcR-DEF”; SEQ ID NO: 1) were fused to a GAL4 DNA binding domain (“Gal4DBD1-147”; nucleotides 31 to 471 of SEQ ID NO: 2) and placed under the control of a phosphoglycerate kinase promoter (“PGK”; SEQ ID NO: 19). Helices 1 through 8 of the EF domains from Homo sapiens RXRβ and helices 9 through 12 of the EF domains of Locusta migratoria Ultraspiracle Protein (“HsRXRβ-EF-LmUSP-EF”; SEQ ID NO: 4) were fused to the transactivation domain from VP16 (“VP16AD”; SEQ ID NO: 5) and placed under the control of an elongation factor-1α promoter (“EF-1α”; SEQ ID NO: 20). Five consensus GAL4 response element binding sites (“5× GAL4RE”; comprising 5 copies of a GAL4RE comprising SEQ ID NO: 7) were fused to a synthetic TATA minimal promoter (SEQ ID NO: 21) and placed upstream of the luciferase reporter gene (SEQ ID NO: 9).
CHO cells were transiently transfected with transcription cassettes for GAL4 DBD (1-147) CfEcR(DEF) and for VP16AD βRXREF-LmUSPEF controlled by ubiquitously active cellular promoters (PGK and EF-1α, respectively) on a single plasmid. Stably transfected cells were selected by Zeocin resistance. Individually isolated CHO cell clones were transiently transfected with a GAL4 RE-luciferase reporter (pFR Luc). 27-63 clone was selected using Hygromycin.
as §1, with “treatments. Dose response testing consisted of 8 concentrations ranging from 33 μM to 0.01 μM.” for “treatments.”
as §2, §3

| SMILES | fold induction at 33 µM [1] | fold induction at 10 µM [2] | fold induction at 100 µM [2] | fold induction at 33 µM [3] | Fold Induction (10 μM) [4] | Fold Induction Average, AA_3T3V1 Assay 33 μM [1] | Activity on AaEcR based switches [5] | Fold Induction Average, Z3V1 Assay 33 μM [3] | Fold Induction Average, 13B3V1 Assay 33 μM [6] | Fold Induction Average, 27-63V1 Assay 33 μM [7] |
| --- | --- | --- | --- | --- | --- | --- | --- | --- | --- | --- |
| C[C@H]1C[C@H](Nc2ccc(F)cc2)c2cc(F)ccc2N1C(=O)c1ccc(F)c(Cl)c1 (relative stereo) [Compound I-6, trans-1-(3-chloro-4-fluorobenzoyl)-6-fluoro-2-methyl-4-(4-fluoroanilino)-1,2,3,4-tetrahydroquinoline] | 86 | 2 | 4 | 1 | 2 fold |  |  |  |  |  |
| C[C@@H]1C[C@H](Nc2ccc(F)cc2)c2cc(F)ccc2N1C(=O)c1ccc(F)c(Cl)c1 (relative stereo) [Compound I-7, cis-1-(3-chloro-4-fluorobenzoyl)-6-fluoro-2-methyl-4-(4-fluoroanilino)-1,2,3,4-tetrahydroquinoline] | 357 | 14 | 8 | 32 | 94 fold |  |  |  |  |  |
| Cc1ccc(C(=O)N2c3ccc(F)cc3[C@@H](Nc3ccc(F)cc3)C[C@@H]2C)cc1F (relative stereo) [Compound I-12] |  |  |  |  |  | 504 fold | very active | 169 fold | 815 fold |  |
| Cc1cc(C(=O)N2c3ccc(F)cc3[C@@H](Nc3ccc(F)cc3)C[C@@H]2C)ccc1F (relative stereo) [Compound I-13] |  |  |  |  |  | 189 fold | very active | 105 fold | 4 fold |  |
| Cc1ccc(C(=O)N2c3ccc(F)cc3[C@H](Nc3ccc(F)cc3)C[C@@H]2C)cc1F (relative stereo) [Compound I-14] |  |  |  |  |  | 518 fold | very active | 7 fold | 2 fold |  |
| COc1ccc(C(=O)N2c3c(C)cccc3C(Nc3ccccc3C)CC2C)cc1 (centres unmarked) [Compound I-135] |  |  |  |  |  | 1 fold |  | 1 fold | 1 fold | 3 fold |
